In experiment [1] the test system is MIA rat model of OA. In words: MIA trial 3 digital Randall-Selitto test (weekly i.a. clonidine 4.5 μg, tacrolimus 30 ng, fluocinolone 15 ng, meloxicam 100 μg, tranilast 500 ng, TH 150 μg; clonidine 100 μg/kg s.c.). Type of experiment: in vivo. The method, then:
The digital Randall-Selitto (dRS) test is said to be a reliable and repeatable measure of neuropathic, bone, and inflammatory pain behavior in several different models, including those of arthritic or joint pain [29, 31, 32]. Baseline and posttreatment values were evaluated using a dRS test device (IITC Life Science, Woodland Hills, CA, USA). Animals were allowed to acclimate to the testing room before all experimentation and for a minimum of 30 minutes before testing. To ensure that their hind limbs were accessible, the animals were gently suspended in a restraint sling. The joint compression threshold was measured once at each time point for the ipsilateral and contralateral knee joints. Pressure was applied gradually over approximately 10 seconds to the medial and lateral aspects of the knee joint. Measurements were taken from the first observed behavior of vocalization, struggle, or withdrawal. A cutoff value of 600 g was used to prevent injury to the animal.
Following isoflurane anesthesia, 50 μl (2 mg) of MIA was injected into the synovial space of the left knee. Animals were randomly assigned to groups, and pain behavior was assessed 7, 14, 21, and 28 days following MIA injection and intervention using WB with the Stoelting incapacitance meter (trial 1) or the dRS test (trials 2 and 3). […] Animals received MIA treatment and then saline control or therapeutic. […] Histopathology was performed at each time point and at study termination. All studies were conducted in accordance with the International Association for the Study of Pain Guidelines and were approved by the Algos Therapeutics, Inc. Institutional Animal Care and Use Committee (IACUC) before initiation. Those running the studies were blind to the treatments. See Additional file 1 for further details. […]
struggle or withdrawal. A cut-off value of 600 g was used to prevent injury to the animal. The mean and standard error of the mean (SEM) were determined for each treatment group.
Statistical significance was assigned as p ≤ 0.05. The stability of the vehicle group over time was assessed on each testing day (Days 7, 14, 21, and 28) using repeated measures one-way analysis of variance (ANOVA) comparing joint compression thresholds at each experimental time point on a given testing day versus that testing day’s pre-treatment value. Osteoarthritis-related pain in the vehicle group was estimated at each time point on each testing day by comparing ipsilateral (injured) to contralateral (normal) joint compression thresholds using paired t-tests. The progression of osteoarthritis-related pain in the vehicle group was estimated by comparing pre-treatment joint compression thresholds on each testing day versus pre-MIA measurements using repeated measures one-way ANOVA. […]
thresholds at each experimental time point on a given testing day with vehicle treated animals using an unpaired t-test. The acute effect of Tacrolimus was analyzed by comparing joint compression thresholds at each time point on a given testing day with the corresponding pre-treatment baseline values using repeated measures one-way ANOVA and compared to vehicle treated animals using […]
values using repeated measures one-way ANOVA. Chronic effects were analyzed by comparing pre-treatment joint compression thresholds on each testing day versus the appropriate Day 7 pre-treatment values using repeated measures one-way ANOVA and by comparing pre-treatment joint compression thresholds with vehicle treated animals on each testing day using an unpaired t-test or one-way ANOVA. Day 7 pre-treatment joint compression thresholds between all groups were assessed using one-way ANOVA. The Dunnett’s multiple comparison post hoc test was used when […]
dosing were housed three per cage. Animals had free access to food and water and were maintained […]
The animal colony was maintained at approximately 21 °C. All experiments were conducted in accordance with the International Association for the Study of Pain Guidelines.

Experiment [2] deals with MIA rat model of OA. In words: MIA trial 2 histopathology (same doses as dRS test). Type of experiment: in vivo. Details: key to Total joint score with matrix / Total joint score w/o matrix: sum of cartilage degeneration, osteophyte and bone scores (± matrix). The settings on record: group mean. The protocol: Following functional testing in the first and second MIA trials, femurs were fixed in paraformaldehyde, processed, sectioned, stained with hematoxylin and eosin or Safranin O at Premier Laboratory (Longmont, CO, USA), and analyzed by a veterinary pathologist. For MIA trial 1, sections were evaluated for the percentage area of chondrocyte necrosis and/or proteolytic degeneration using a 5-point scale with 0 = none; 1 being <10 %; 2 = 10–30 %; 3 = 30–60 %; 4 = 60–90 %; and 5 being >90 %. Other characteristics of inflammation, proliferation, and integrity of the synovium, subchondral bone, and articular cartilage were scored as normal, minimal, mild, moderate, marked, or increased or decreased when severity was not graded. MIA trial 2 was measured similarly and then cross-checked according to the methods used for MIA trial 3 (see text below).
For MIA trial 3, joints were fixed and toluidine blue–stained sections of the rat knees were comprehensively analyzed from test and control subjects as detailed in Additional file 1. Briefly, a 5-point cartilage matrix score was derived based upon (1) approximate percentage of total loss of articular chondrocytes for each of four articular surfaces, (2) estimated proteoglycan loss (via Safranin O staining), and (3) loss of interstitial matrix. Chondrocyte necrosis and proteolytic degeneration of the femurs were scored on a 5-point scale as in trial 1. A femoral cartilage degeneration score and a three-zone sum of the tibial cartilage degeneration scores (mean of three levels) were also summed to create a total cartilage degeneration score. The mean osteophyte score for each joint was added to this value to create a total joint score with matrix. Other parameters assessed included synovial membrane inflammation and proliferation. Representative images from each group were also collected (see, e.g., Fig. 4 and Additional file 1: Fig. S55, Trial 3).
The histopathology for the first MIA trial was performed by Premier Laboratories (Dr. Michael Hawes, APS, Pathologist). Treatments were masked during the assessment. Chondrocyte necrosis and proteolytic degeneration of the femurs were scored on a 5 point scale with 0 = None; 1 = <10%; […]
proteoglycan content (safranin O staining), synovial membrane inflammation and proliferation, subchondral bone, and articular cartilage (as indicated in Supplementary methods). Characteristics within these categories were scored as normal, minimal, mild, moderate, marked, or +/- when severity was not graded. Slides from Trial 2 were further reviewed by Dr. Bendele using the analytical method described below for the MMT/MCLT model to confirm any conclusions.
For the histopathology of the MIA model in Trial 3, completed by Bolder BioPATH (and Dr.
Bendele), a tolouidine blue stained slide containing both halves of the joint was comprehensively analyzed from test and control subjects. Approximate % of total loss of articular chondrocytes, loss of proteoglycan and loss of collagenous matrix were determined for each articular surface (medial tibial plateau (MTP), lateral tibial plateau (LTP), medial femoral condyle (MFC), and lateral femoral condyle (LFC). Chondrocyte loss was quantified by estimating the area of cartilage in which there were no apparently viable chondrocytes and proteoglycan loss was quantified by estimating differences in intensity of toluidine blue matrix staining. Loss of interstitial matrix was an indication of disruption and diminished type II collagen. Based on the mean % loss for the four surfaces in these parameters, a five point matrix score was utilized with the subchondral bone resorption, subchondral bone sclerosis and osteophyte scores to achieve a total joint score.
Histopathology MMT/MCLT Model

Where [3] appears, read: tacrolimus 0.3 mg/kg, other drugs single dose.

These results are taken from PMC4721142, “Randomized controlled studies on the efficacy of antiarthritic agents in inhibiting cartilage degeneration and pain associated with progression of osteoarthritis in the rat” (Arthritis Research & Therapy, 2016).

Several values for one entry are separate records, joined by “and”; a condition that tells them apart may be missing. Identical values can stand only once.

`Clc1cccc(Cl)c1N=C1NCCN1` [Clonidine]: the “dRS, hours after dosing with significant difference” value (“dRS … with significant difference” for short) in experiment [1] (day 7) is 1 h. For the same compound, in experiment [2] (setting [3]), the Bone resorption score came out at 3.7; the “Bone resorption, percent of surface, LFC” value was determined as 87%; the “Bone resorption, percent of surface, LTP” value is reported as 53%; the “Bone resorption, percent of surface, MFC” value was determined as 63%. Besides, in experiment [2] (setting [3]), the “Bone resorption, percent of surface, MTP” value is 73%; the “Bone resorption, percent of surface, mean” value is 69%; the “Cartilage matrix damage score” value is 3.7 and 3.7 ± 0.3; the “Mean of all cartilage loss” value was found to be 67%. Further, in experiment [2] (setting [3]), the Osteophyte measure is 866.7 µm, the Osteophyte score was determined as 4.0, the “Subchondral bone sclerosis score” value stood at 0.3 and the “Total joint score w/o matrix” value came out at 8.0. Besides, the “Total joint score with matrix” value in experiment [2] (setting [3]) is 11.7 and 11.7 ± 0.9.
Regarding `COc1cc(/C=C/C(=O)CC(=O)/C=C/c2ccc(O)c(OC)c2)ccc1O` [Curcumin, Diferuloylmethane], in experiment [2] (setting [3]), the Bone resorption score worked out at 4.8; the “Bone resorption, percent of surface, LFC” value worked out at 100%; the “Bone resorption, percent of surface, LTP” value is given as 100%; the “Bone resorption, percent of surface, MFC” value came out at 88%. In experiment [2] (setting [3]), the “Bone resorption, percent of surface, MTP” value came to 90%; the “Bone resorption, percent of surface, mean” value worked out at 94%; the “Cartilage matrix damage score” value is 5.0 and 5.0 ± 0.0; the “Mean of all cartilage loss” value is reported as 89%. In experiment [2] (setting [3]), the Osteophyte measure is recorded as 1000.0 µm, the Osteophyte score is recorded as 4.8, the “Subchondral bone sclerosis score” value is given as 0.0 and the “Total joint score w/o matrix” value is 9.5. Further, the “Total joint score with matrix” value in experiment [2] (setting [3]) was 14.5 and 14.5 ± 0.3.
Turning to `CC1(C)O[C@@H]2C[C@H]3[C@@H]4C[C@H](F)C5=CC(=O)C=C[C@]5(C)[C@@]4(F)[C@@H](O)C[C@]3(C)[C@]2(C(=O)CO)O1` [Fluocinolone, Fluocinolone Acetonide], the “dRS … with significant difference” value in experiment [1] (day 7) amounted to 1 h. The “dRS … with significant difference” value in experiment [1] (day 28, negative = worse) is -24 h. Moreover, in experiment [2] (setting [3]), the Bone resorption score is listed as 3.0; the “Bone resorption, percent of surface, LFC” value came to 65%; the “Bone resorption, percent of surface, LTP” value was found to be 58%; the “Bone resorption, percent of surface, MFC” value is given as 38%. Besides, in experiment [2] (setting [3]), the “Bone resorption, percent of surface, MTP” value came to 45%; the “Bone resorption, percent of surface, mean” value is 51%; the “Cartilage matrix damage score” value was 3.3 and 3.3 ± 0.8; the “Mean of all cartilage loss” value is reported as 60%. In experiment [2] (setting [3]), the Osteophyte measure is 600.0 µm, the Osteophyte score stood at 3.0, the “Subchondral bone sclerosis score” value is on record as 0.0 and the “Total joint score w/o matrix” value is 6.0. Also, in experiment [2] (setting [3]), the “Total joint score with matrix” value was 9.3 and 9.3 ± 2.5.
Turning to `C=CC[C@@H]1/C=C(\C)C[C@H](C)C[C@H](OC)[C@H]2O[C@@](O)(C(=O)C(=O)N3CCCC[C@H]3C(=O)O[C@H](/C(C)=C/[C@@H]3CC[C@@H](O)[C@H](OC)C3)[C@H](C)[C@@H](O)CC1=O)[C@H](C)C[C@@H]2OC` [Tacrolimus], in experiment [2] (setting [3]), the Bone resorption score was 4.3; the “Bone resorption, percent of surface, LFC” value was 88%; the “Bone resorption, percent of surface, LTP” value is given as 88%; the “Bone resorption, percent of surface, MFC” value turned out to be 70%. Further, in experiment [2] (setting [3]), the “Bone resorption, percent of surface, MTP” value worked out at 94%; the “Bone resorption, percent of surface, mean” value is reported as 85%; the “Cartilage matrix damage score” value is 3.8 and 3.8 ± 0.6; the “Mean of all cartilage loss” value was 69%. In experiment [2] (setting [3]), the Osteophyte measure is recorded as 700.0 µm, the Osteophyte score is listed as 3.5, the “Subchondral bone sclerosis score” value came out at 0.0 and the “Total joint score w/o matrix” value amounted to 7.8. Also, the “Total joint score with matrix” value in experiment [2] (setting [3]) was 11.5 and 11.5 ± 1.7. For the same compound, in experiment [2] (tacrolimus 0.6 mg/kg i.p.), the Bone resorption score was determined as 3.8; the “Bone resorption, percent of surface, LFC” value amounted to 80%; the “Bone resorption, percent of surface, LTP” value turned out to be 70%; the “Bone resorption, percent of surface, MFC” value is recorded as 63%. For the same compound, in experiment [2] (tacrolimus 0.6 mg/kg i.p.), the “Bone resorption, percent of surface, MTP” value amounted to 68%; the “Bone resorption, percent of surface, mean” value amounted to 70%; the “Cartilage matrix damage score” value is 3.8 and 3.8 ± 0.6; the “Mean of all cartilage loss” value was 62%. In experiment [2] (tacrolimus 0.6 mg/kg i.p.), the Osteophyte measure is 550.0 µm, the Osteophyte score stood at 2.8, the “Subchondral bone sclerosis score” value was 0.0 and the “Total joint score w/o matrix” value stood at 6.5. Moreover, the “Total joint score with matrix” value in experiment [2] (tacrolimus 0.6 mg/kg i.p.) is 10.3 and 10.3 ± 2.1.
As for `COc1ccc(C=CC(=O)Nc2ccccc2C(=O)O)cc1OC` [Tranilast, N-(3′,4′-dimethoxycinnamoyl)anthranilic acid], the “dRS … with significant difference” value in experiment [1] (day 14) and in experiment [1] (day 21) was 1 h in each case.
For `CC(C)(C)CC(=O)OCC(=O)[C@@]12OC(C)(C)O[C@@H]1C[C@H]1[C@@H]3CCC4=CC(=O)C=C[C@]4(C)[C@@]3(F)[C@@H](O)C[C@@]12C` [Triamcinolone hexacetonide], the “dRS … with significant difference” value is 3 h in experiment [1] (day 7); 1 h in experiment [1] (day 14); “Pretrt^f” in experiment [1] (day 21); -24 h in experiment [1] (day 28, negative = worse).
